# Laboratory results: patent publication US8486465B1 (priority 2007, dated 2013)
# Test system: Human breast cancer MCF-7 cells
# Test: Apoptosis of MCF-7 cells by Propidium Iodide technique measured by flow cytometry
# Format: cell-based
# Settings: NOE 0
# Text: Cell Culture. […] Levels of apoptosis (cell death) were then examined using the Propidium Iodide technique as measured by flow cytometry using a FACscan (BD Biosciences, San Jose, Calif.). Forward (FSC) and Side scatter (SSC) were used to gate the cells.
# (§1) FIGS. 1A, 1C, 1E, and 1G are dot plots which show the populations of cells grown under the particular culture conditions described below, while FIGS. 1B, 1D, 1F, and 1H respectively are the corresponding frequency histograms showing the total population of apoptotic MCF-7 cancer cells for each culture.
# as §1, with “2A, 2C, 2E,” for “1A, 1C, 1E,”, “2G” for “1G”, “[…]” for “1B, 1D, 1F,”, “2B, 2D, 2F and 2H” for “1H”
# [1] = GSH 5 mM alone, MCF-7, 24 hours (Table 1, Example 2)
# [2] = GSH 10 mM alone, MCF-7, 24 hours (Table 2, Example 3)
smiles,measurement,setting,value
"N[C@@H](CCC(=O)N[C@@H](CS)C(=O)NCC(=O)O)C(=O)O [GSH, Glutathione]",% cell death,[1],20%
same,% cell death relative to control,[1],11%
same,% cell survival,[1],80%
same,% cell survival relative to Control,[1],98%
same,% cell death,[2],10%
same,% cell death relative to control,[2],96%
same,% cell survival,[2],90%
same,% cell survival relative to Control,[2],95%
